{"source": "patent US11944628B2", "about": "“Methods for the use of low-dose immune modulators transiently for treating patients undergoing protein replacement therapy” (Duke University, priority 2017, dated 2024)", "key": {"anti-rhGAA IgG response": {"tested_on": "anti-rhGAA IgG response", "conditions": "methotrexate alone, transient low dose co-initiated with ERT, Joseph et al. (2008); cited from earlier work"}, "[1]": {"assay": "Safety: hematologic and biochemical analyses (ANC, AST, ALT), adverse events and infections in methotrexate recipients", "format": "in vivo, human", "conditions": "for Neutropenia (ANC <750 cells/mm^3), percent of patients: transient; for ALT > 3x baseline (Yes/No) / ANC < 750 cells/mm^3 (Yes/No) / AST > 3x baseline (Yes/No): first 6 weeks on alglucosidase alfa"}, "[2]": {"tested_on": "anti-rhGAA IgG antibodies", "assay": "Anti-rhGAA IgG antibody titers over time (ELISA, confirmed by radioimmunoprecipitation) in Pompe disease patients on ERT with TLD-MTX or on ERT monotherapy (comparators)", "format": "in vivo, human", "conditions": "for Overall immune tolerance outcome versus historical data: cohort conclusion in words; for Development of HSAT: methotrexate recipients: Example 2 (n=17), Example 3 (n=14, by data cutoff Jun. 16, 2017)", "procedure": "Methotrexate at 0.4 mg/kg body weight was administered subcutaneously (or orally if subcutaneous administration was not possible) on three consecutive days/MTX cycle/infusion; with the first three ERT infusions (i.e., on Days 0, 14, and 28 for patients infused EOW) for a total of 3 cycles. On the day of ERT infusion, methotrexate was administered 15 minutes (if subcutaneous) or 1 hour (if oral) before infusion initiation and again on the following 2 days. To exemplify the schedule, in a patient receiving ERT infusion EOW, methotrexate was administered on Days 0, 1, and 2 (first cycle); Days 14, 15, and 16 (second cycle), and Days 28, 29, and 30 (third cycle). As stated earlier, the dose and frequency of ERT could be increased at the discretion of the treating physician, based on patients' clinical and IAR status, in which case methotrexate cycles were adjusted accordingly (see FIG. 2 for details).\nAnti-rhGAA IgG antibodies were determined by Sanofi Genzyme (Framingham, MA, USA) using enzyme-linked immunosorbent assays and confirmed using radioimmunoprecipitation as described previously (Kishnani et al. (2006) J. Pediatr. 149:89-97). Antibody analyses were recommended to be performed at Days −1, 28, 56, 84, 112, 140, 168, 196, 224, 252, 280, 308, 336, and 364.\nrhGAA IgG titers were determined over time. Patients were classified into HSAT (≥51,200 on ≥2 occasions at or beyond 6 months on ERT), sustained intermediate titer (SIT) (≥12,800 and <51,200 within the first year of ERT), and low titer (LT; ≤6,400 within the first year of ERT) groups based on the longitudinal anti-rhGAA IgG titers. […] Medians and ranges were determined for baseline, peak, and last titers, although our focus was on longitudinal titers through time because sustained titers affect clinical response.\nThe comparators received rhGAA alone. The GAA variant data and age at ERT initiation were compared with our cohort of TLD-MTX recipients. Immune responses over time were classified into HSAT, SIT, and LT as defined above, and time to seroconversion, peak titers, titers at Weeks 12, 24, and 52 were compared with our present cohort of TLD-MTX recipients."}, "[3]": {"conditions": "individual atypical IOPD patients"}, "[4]": {"conditions": "individual SIT patients IOPD13 and IOPD14 (patient named in the cell), listed as TLD-MTX"}}, "note": "Values joined by “and” are separate entries in the source; they are usually repeats but may differ in a detail not shown here. Equal values may be shown once. “Also recorded” adds a separate entry of the source. Marks after values point to notes of the source that are not given here."}
{"compound": "CN(Cc1cnc2nc(N)nc(N)c2n1)c1ccc(C(=O)N[C@@H](CCC(=O)O)C(=O)O)cc1", "note": "[methotrexate]", "values": [{"measurement": "Effect on anti-rhGAA IgG response", "setting": "anti-rhGAA IgG response", "result": "sustainably reduced anti-rhGAA IgG response"}, {"measurement": "Neutropenia (ANC <750 cells/mm^3), percent of patients", "setting": "[1]; 2 of 9 IOPD patients with ANC data (Example 2)", "result": 22, "unit": "%"}, {"measurement": "Neutropenia (ANC <750 cells/mm^3), percent of patients", "setting": "[1]; 2 of 13 IOPD patients with ANC data (Example 3)", "result": 15.4, "unit": "%"}, {"measurement": "ALT > 3x baseline (Yes/No)", "setting": "[1]; individual IOPD patients", "result": "Yes (3×) and No (5×)"}, {"measurement": "ANC < 750 cells/mm^3 (Yes/No)", "setting": "[1]; individual IOPD patients", "result": "Yes (2×) and No (7×)"}, {"measurement": "AST > 3x baseline (Yes/No)", "setting": "[1]; individual IOPD patients", "result": "No (7×) and Yes"}, {"measurement": "ALT > 3x baseline (Yes/No)", "setting": "[1]; individual LOPD patients", "result": "No"}, {"measurement": "ANC < 750 cells/mm^3 (Yes/No)", "setting": "[1]; individual LOPD patients", "result": "No"}, {"measurement": "AST > 3x baseline (Yes/No)", "setting": "[1]; individual LOPD patients", "result": "No"}, {"measurement": "ALT > 3x baseline (Yes/No)", "setting": "[1]; [3]", "result": "No"}, {"measurement": "ANC < 750 cells/mm^3 (Yes/No)", "setting": "[1]; [3]", "result": "No"}, {"measurement": "AST > 3x baseline (Yes/No)", "setting": "[1]; [3]", "result": "No"}, {"measurement": "Overall tolerability", "setting": "[1]; methotrexate recipients", "result": "tolerated the methotrexate protocol reasonably"}, {"measurement": "Serious AEs related to methotrexate", "setting": "[1]; methotrexate recipients", "result": "No serious AEs were related to methotrexate"}, {"measurement": "Patients with hospitalizations related to infections around the time of methotrexate administration", "setting": "[1]; patients with infection data available (Example 3), resolved", "result": "Two of nine"}, {"measurement": "Median last titer", "setting": "[2]; 17 CRIM-positive IOPD, atypical IOPD and LOPD methotrexate recipients (Example 2), median ~68 weeks on alglucosidase alfa", "result": "100 (range, 0-6400) and 100 (range 0-6400)"}, {"measurement": "Patients remaining seronegative", "setting": "[2]; Example 2 cohort of 17 patients", "result": "1 of 17"}, {"measurement": "Highest observed titer in the study", "setting": "[2]; Example 2 cohort, IOPD patient (Patient 3) given one methotrexate dose each in cycles 2 and 3", "result": "12,800"}, {"measurement": "Percent of patients in HSAT group", "setting": "[2]; HSAT: titers >=51,200 on >=2 occasions at or beyond 6 months on ERT, IOPD", "result": 0, "unit": "%"}, {"measurement": "Titer", "setting": "[2]; IOPD Patient 3, Week 49", "result": 400}, {"measurement": "Titer", "setting": "[2]; IOPD Patient 3, by Week 20", "result": 3200}, {"measurement": "Percent of patients who developed HSAT or SIT", "setting": "[2]; IOPD, comparator group n=37, TLD-MTX group n=14", "result": 14.2, "unit": "%"}, {"measurement": "Median peak titers", "setting": "[2]; LT group, IOPD", "result": "3,200"}, {"measurement": "Median titers (Week 12)", "setting": "[2]; LT group, IOPD", "result": "1,600"}, {"measurement": "Median titers (Week 24)", "setting": "[2]; LT group, IOPD", "result": 600}, {"measurement": "Median titers (Week 52)", "setting": "[2]; LT group, IOPD, seropositive titers <100 deemed 50", "result": "250***"}, {"measurement": "Percent of patients in SIT group", "setting": "[2]; SIT: titers >=12,800 and <51,200 within first year of ERT, IOPD", "result": "14.2% (n = 2)"}, {"measurement": "Overall immune tolerance outcome versus historical data", "setting": "[2]; listed as TLD-MTX", "result": "successfully blunted the immune response overall"}, {"measurement": "Overall immune tolerance outcome versus historical data", "setting": "[2]; listed as low-dose methotrexate", "result": "successfully induced immune tolerance"}, {"measurement": "Peak antibody titer since immune tolerance induction", "setting": "[2]; individual IOPD patients (one line per patient), >6 months follow-up, methotrexate 0.4 mg/kg, 3 cycles, with alglucosidase alfa", "result": "3,200 (3×) and <100 and 200 and 800 (3×) and 6,400"}, {"measurement": "Peak antibody titer since immune tolerance induction", "setting": "[2]; individual IOPD patients (one line per patient), >6 months follow-up, methotrexate 0.4 mg/kg, 3 cycles, with alglucosidase alfa, single methotrexate dose in cycles 2 and 3", "result": "12,800*"}, {"measurement": "Last antibody titer", "setting": "[2]; individual IOPD patients (one line per patient), last titer at 42-122 weeks on ERT", "result": "0 (4×) and 400 and <100 and 100 (2×) and 6,400"}, {"measurement": "Last antibody titer", "setting": "[2]; individual IOPD patients (one line per patient), last titer at 42-122 weeks on ERT, single methotrexate dose in cycles 2 and 3", "result": 400}, {"measurement": "Peak antibody titer", "setting": "[2]; individual IOPD patients IOPD1-IOPD14 (one line per patient) on TLD-MTX protocol, >6 months follow-up", "result": "12,800* and 3,200 (4×) and 200 (2×) and 800 (3×) and 6,400 and 51,200** and 25,600*** and <100"}, {"measurement": "Last antibody titer", "setting": "[2]; individual IOPD patients IOPD1-IOPD14 on TLD-MTX protocol, last titer at 32-122 weeks on ERT", "result": "400 (3×) and 0 (4×) and <100 and 100 (2×) and 6,400 and 200 and 12,800 and 12.800"}, {"measurement": "Peak antibody titer since immune tolerance induction", "setting": "[2]; individual LOPD patients (one line per patient), >6 months follow-up", "result": "1,600 and 800"}, {"measurement": "Last antibody titer", "setting": "[2]; individual LOPD patients, last titer at 63 and 27 weeks on ERT", "result": "0 and 400"}, {"measurement": "Titer (Week 52)", "setting": "[2]; individual SIT patient IOPD13", "result": "IOPD13: 12,800"}, {"measurement": "Peak titer", "setting": "[2]; [4]", "result": "IOPD13: 51,200;; also recorded: IOPD14: 12,800"}, {"measurement": "Titer (Week 12)", "setting": "[2]; [4]", "result": "IOPD13: 12,800;; also recorded: IOPD14: 25,600"}, {"measurement": "Titer (Week 24)", "setting": "[2]; [4]", "result": "IOPD13: 12,800;; also recorded: IOPD14: 12,800"}, {"measurement": "Peak antibody titer since immune tolerance induction", "setting": "[2]; individual atypical IOPD patients (one line per patient), >6 months follow-up", "result": "3,200 and Never and <100 and 800 and 200"}, {"measurement": "Last antibody titer", "setting": "[2]; individual atypical IOPD patients, last titer at 58-145 weeks on ERT", "result": "400 and 0 and <100 and 200 (2×)"}, {"measurement": "Peak antibody titer, median", "setting": "[2]; median of 14 IOPD patients on TLD-MTX protocol", "result": "3,200"}, {"measurement": "Last antibody titer, median", "setting": "[2]; median of 14 IOPD patients on TLD-MTX protocol, median time on ERT ~71 weeks", "result": "150 (range, 0-12,800)"}, {"measurement": "Development of HSAT", "setting": "[2]", "result": "No patients who received methotrexate developed HSAT; also recorded: No methotrexate recipients developed HSAT"}, {"measurement": "Development of HSAT", "setting": "[2]; listed as TLD-MTX", "result": "No patients who received TLD-MTX developed HSAT"}, {"measurement": "Maximal titer", "setting": "[2]; one methotrexate-treated LOPD patient, Weeks 16 and 20", "result": "1,600"}, {"measurement": "Titers remaining (seropositive on screening assay, below limit of titer measurement)", "setting": "[2]; patient IOPD2", "result": "< 100"}, {"measurement": "Titer", "setting": "[2]; patient IOPD13, Week 7 only", "result": "51,200"}, {"measurement": "Peak titer after the cutoff date (HSAT developed)", "setting": "[2]; patient IOPD13, Week 76", "result": "102,400"}, {"measurement": "Titer", "setting": "[2]; patient IOPD13, Weeks 12 and 37", "result": "25,600"}, {"measurement": "Titer", "setting": "[2]; patient IOPD13, Weeks 14, 17, 23, 31 and 44", "result": "12,800"}, {"measurement": "Titer", "setting": "[2]; patient IOPD14, Week 28 only", "result": "25,600"}, {"measurement": "Last titer after the cutoff for data collection", "setting": "[2]; patient IOPD14, Week 36", "result": "6,400"}, {"measurement": "Titer", "setting": "[2]; patient IOPD14, Weeks 12, 16, 24 and 32", "result": "12,800"}, {"measurement": "Titer", "setting": "[2]; same LOPD patient, Week 63", "result": 0}, {"measurement": "Titer", "setting": "[2]; same LOPD patient, Weeks 32-55", "result": 100}, {"measurement": "Titer", "setting": "[2]; the other LOPD patient, Week 27", "result": 400}, {"measurement": "Maximal titer", "setting": "[2]; the other methotrexate-treated LOPD patient, Weeks 9-16", "result": 800}]}
